According to patent US9067934B2, “Bicyclic pyridinones” (Pfizer Inc., priority 2011, dated 2015):
Counter-ions that a name gives are not always drawn.

Each molecule was assayed on production of amyloid beta protein Aβ(1-42) (γ-secretase) in human WT-APP overexpressing CHO cells (assay: Cell-Based γ-Secretase Assay with ELISA Readout). Conditions: human WT-APP overexpressing CHO cells, ~24 hours at 37° C., Aβ(1-42) ELISA; footnotes: a = geometric mean of >15 determinations, b = single determination, c = geometric mean of 7-15 determinations; read-out: Aβ 42B IC50 (Geometric Mean of 2-6 Determinations).
Method in brief: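 Human WT-APP-overexpressing CHO cells were pre-cultured 24 h at 37° C, then exposed to compounds (eleven-point half-log series, 1% final DMSO) for ~24 h. Aβ(1-42) in conditioned media was captured with Aβ(1-42)-specific antibody and detected with Eu-labeled 6e10 by DELFIA TRF. IC50 by nonlinear regression against min/max inhibition controls.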
In the case of `Cc1cn(-c2ccc3n(c2=O)CCN(CCOc2ncc(Cl)c4ccccc24)C3=O)cn1` [Example 68, 2-{2-[(4-chloroisoquinolin-1-yl)oxy]ethyl}-7-(4-methyl-1H-imidazol-1-yl)-3,4-dihydro-2H-pyrido[1,2-a]pyrazine-1,6-dione, trifluoroacetate salt], the IC50 is reported as 0.0594 µM.
Molecule `Cc1cn(-c2ccc3n(c2=O)CCN(CCOc2ccnc4ccc(C(F)(F)F)cc24)C3=O)cn1` [Example 69, 7-(4-methyl-1H-imidazol-1-yl)-2-(2-{[6-(trtfluoromethyl)quinolin-4-yl]oxy}ethyl)-3,4-dihydro-2H-pyrido[1,2-a]pyrazine-1,6-dione] has an IC50 of 0.0583 µM.
`C#CCCCOc1ccc(C(=O)c2cccc(OCCN3CCn4c(ccc(-n5cnc(C)c5)c4=O)C3=O)c2)cc1` [Example 70, 7-(4-methyl-1H-imidazol-1-yl)-2-(2-{3-[4-(pent-4-yn-1-yloxy)benzoyl]phenoxy}ethyl)-3,4-dihydro-2H-pyrido[1,2-a]pyrazine-1,6-dione] gave an IC50 of 0.135 µM.
`Cc1cn(-c2ccc3n(c2=O)CCN(CCOc2cccc4c2c2ccccc2n4C)C3=O)cn1` [Example 71, 2-{2-[(9-methyl-9H-carbazol-4-yl)oxy]ethyl}-7-(4-methyl-1H-imidazol-1-yl)-3,4-dihydro-2H-pyrido[1,2-a]pyrazine-1,6-dione, trifluoroacetate salt] gave an IC50 of 0.00422 µM.
`Cc1cn(-c2ccc3n(c2=O)CCN(CCOc2ccccc2-c2cc(C(F)(F)F)no2)C3=O)cn1` [Example 72, 7-(4-methyl-1H-imidazol-1-yl)-2-(2-{2-[3-(trifluoromethyl)isoxazol-5-yl]phenoxy}ethyl)-3,4-dihydro-2H-pyrido[1,2-a]pyrazine-1,6-dione] was tested, and the IC50 was 0.0148 µM.
Molecule `Cc1cn(-c2ccc3n(c2=O)CCN(CCOc2ccc(F)c4nc(C(F)(F)F)sc24)C3=O)cn1` [Example 73, 2-(2-{[4-fluoro-2-(trifluoromethyl)-1,3-benzothiazol-7-yl]oxy}ethyl)-7-(4-methyl-1H-imidazol-1-yl)-3,4-dihydro-2H-pyrido[1,2-a]pyrazine-1,6-dione] has an IC50 of 0.0437 µM.
Work on `Cc1cn(-c2ccc3n(c2=O)CCN(CCOc2nccc4oc5ccccc5c24)C3=O)cn1` [Example 74, 2-[2-([1]benzofuro[3,2-c]pyridin-1-yloxy)ethyl]-7-(4-methyl-1H-imidazol-1-yl)-3,4-dihydro-2H-pyrido[1,2-a]pyrazine-1,6-dione] yielded an IC50 of 0.0385 µM.
For `Cc1cn(-c2ccc3n(c2=O)CCN(CCOc2ncc(F)cc2-c2csc(C(F)(F)F)n2)C3=O)cn1` [Example 75, 2-[2-({5-fluoro-3-[2-(trifluoromethyl)-1,3-thiazol-4-yl]pyridin-2-yl}oxy)ethyl]-7-(4-methyl-1H-imidazol-1-yl)-3,4-dihydro-2H-pyrido[1,2-a]pyrazine-1,6-dione], the IC50 was 0.0623 µM.
In the case of `Cc1cn(-c2ccc3n(c2=O)CCN(CCOc2ccc(F)cc2C2CC(F)(F)C2)C3=O)cn1` [Example 76, 2-{2-[2-(3,3-difluorocyclobutyl)-4-fluorophenoxy]ethyl}-7-(4-methyl-1H-imidazol-1-yl)-3,4-dihydro-2H-pyrido[1,2-a]pyrazine-1,6-dione], the IC50 is reported as 0.0586 µM.
`Cc1cn(-c2ccc3n(c2=O)CCN(CCOc2nsc4ccc(Cl)cc24)C3=O)cn1` [Example 77, 2-{2-[(5-chloro-1,2-benzisothiazol-3-yl)oxy]ethyl}-7-(4-methyl-1H-imidazol-1-yl)-3,4-dihydro-2H-pyrido[1,2-a]pyrazine-1,6-dione] was tested, and the IC50 was 0.0662 µM.
`COc1ccc2c(OCCN3CCn4c(ccc(-n5cnc(C)c5)c4=O)C3=O)cccc2c1` [Example 78, 2-{2-[(6-methoxy-1-naphthyl)oxy]ethyl}-7-(4-methyl-1H-imidazol-1-yl)-3,4-dihydro-2H-pyrido[1,2-a]pyrazine-1,6-dione] was tested, and the IC50 was 0.0875 µM.
`Cc1cn(-c2ccc3n(c2=O)CCN(CCOc2cccc4sc5ccccc5c24)C3=O)cn1` [Example 79, 2-[2-(dibenzo[b,d]thien-1-yloxy)ethyl]-7-(4-methyl-1H-imidazol-1-yl)-3,4-dihydro-2H-pyrido[1,2-a]pyrazine-1,6-dione] showed an IC50 of 0.00723 µM.
For `Cc1cn(-c2ccc3n(c2=O)CCN(CCOc2ccc(F)c4sc(C(F)(F)F)nc24)C3=O)cn1` [Example 80, 2-(2-{[7-fluoro-2-(trifluoromethyl)-1,3-benzothiazol-4-yl]oxy}ethyl)-7-(4-methyl-1H-imidazol-1-yl)-3,4-dihydro-2H-pyrido[1,2-a]pyrazine-1,6-dione], the IC50 was 0.152 µM.
Molecule `Cc1cn(-c2ccc3n(c2=O)CCN(CCOc2cccc(-n4ccc(C(F)(F)F)n4)c2)C3=O)cn1` [Example 81, 7-(4-methyl-1H-imidazol-1-yl)-2-(2-{3-[3-(trifluoromethyl)-1H-pyrazol-1-yl]phenoxy}ethyl)-3,4-dihydro-2H-pyrido[1,2-a]pyrazine-1,6-dione, trifluoroacetate salt] has an IC50 of 0.384 µM.
For `Cc1cn(-c2ccc3n(c2=O)CCN(CCOc2noc4ccc(Cl)cc24)C3=O)cn1` [Example 82, 2-{2-[(5-chloro-1,2-benzisoxazol-3-yl)oxy]ethyl}-7-(4-methyl-1H-imidazol-1-yl)-3,4-dihydro-2H-pyrido[1,2-a]pyrazine-1,6-dione], the IC50 was 0.209 µM.
In the case of `Cc1cn(-c2ccc3n(c2=O)CCN(CCOc2cccc4ccc(F)cc24)C3=O)cn1` [Example 83, 2-{2-[(7-fluoronaphthalen-1-yl)oxy]ethyl}-7-(4-methyl-1H-imidazol-1-yl)-3,4-dihydro-2H-pyrido[1,2-a]pyrazine-1,6-dione], the IC50 is reported as 0.0123 µM.
In the case of `Cc1cn(-c2ccc3n(c2=O)CCN(CCOc2cc(C(F)(F)F)nc4cc(Cl)ccc24)C3=O)cn1` [Example 84, 2-(2-{[7-chloro-2-(trrfluoromethyl)quinolin-4-yl]oxy}ethyl)-7-(4-methyl-1H-imidazol-1-yl)-3,4-dihydro-2H-pyrido[1,2-a]pyrazine-1,6-dione], the IC50 is reported as 0.0715 µM.
`Cc1cn(-c2ccc3n(c2=O)CCN(CCOc2ccc(F)cc2-n2ccc(C(F)(F)F)n2)C3=O)cn1` [Example 85, 2-(2-{4-fluoro-2-[3-(trifluoromethyl)-1H-pyrazol-1-yl]phenoxy}ethyl)-7-(4-methyl-1H-imidazol-1-yl)-3,4-dihydro-2H-pyrido[1,2-a]pyrazine-1,6-dione] gave an IC50 of 0.106 µM.
`Cc1cn(-c2ccc3n(c2=O)CCN(CCOc2cnc(C(F)(F)F)c4ccccc24)C3=O)cn1` [Example 86, 7-(4-methyl-1H-imidazol-1-yl)-2-(2-{[1-(trifluoromethyl)isoquinolin-4-yl]oxy}ethyl)-3,4-dihydro-2H-pyrido[1,2-a]pyrazine-1,6-dione, trifluoroacetate salt] gave an IC50 of 0.107 µM.
In the case of `Cc1cn(-c2ccc3n(c2=O)CCN(CCOc2ccc(F)c4oc5ccccc5c24)C3=O)cn1` [Example 87, 2-{2-[(4-fluorodibenzo[b,d]furan-1-yl)oxy]ethyl}-7-(4-methyl-1H-imidazol-1-yl)-3,4-dihydro-2H-pyrido[1,2-a]pyrazine-1,6-dione], the IC50 is reported as 0.0228 µM.
For `Cc1cn(-c2ccc3n(c2=O)CCN(CCOc2ccccc2-c2cccc(F)c2)C3=O)cn1` [Example 88, 2-{2-[(3′-fluorobiphenyl-2-yl)oxy]ethyl}-7-(4-methyl-1H-imidazol-1-yl)-3,4-dihydro-2H-pyrido[1,2-a]pyrazine-1,6-dione, formate salt], the IC50 was 0.0754 µM.
In the case of `Cc1cn(-c2ccc3n(c2=O)CCN(CCOc2ccccc2-c2ccc(F)cc2)C3=O)cn1` [Example 89, 2-{2-[(4′-fluorobiphenyl-2-yl)oxy]ethyl}-7-(4-methyl-1H-imidazol-1-yl)-3,4-dihydro-2H-pyrido[1,2-a]pyrazine-1,6-dione, formate salt], the IC50 is reported as 0.101 µM.
With `Cc1cn(-c2ccc3n(c2=O)CCN(CCOc2ccccc2-c2ccc(C#N)cc2)C3=O)cn1` [Example 90, 2′-{2-[7-(4-methyl-1H-imidazol-1-yl)-1,6-dioxo-1,3,4,6-tetrahydro-2H-pyrido[1,2-a]pyrazin-2-yl]ethoxy}biphenyl-4-carbonitrile, formate salt] the IC50 was 0.147 µM.
`Cc1cn(-c2ccc3n(c2=O)CCN(CCOc2ccccc2-c2ccc4c(c2)OCO4)C3=O)cn1` [Example 91, 2-{2-[2-(1,3-benzodioxol-5-yl)phenoxy]ethyl}-7-(4-methyl-1H-imidazol-1-yl)-3,4-dihydro-2H-pyrido[1,2-a]pyrazine-1,6-dione, formate salt] showed an IC50 of 0.12 µM.
With `Cc1cn(-c2ccc3n(c2=O)CCN(CCOc2ccccc2-c2cc4ccccc4o2)C3=O)cn1` [Example 92, 2-{2-[2-(1-benzofuran-2-yl)phenoxy]ethyl}-7-(4-methyl-1H-imidazol-1-yl)-3,4-dihydro-2H-pyrido[1,2-a]pyrazine-1,6-dione, formate salt] the IC50 was 0.00487 µM.
With `Cc1ccc(-c2ccccc2OCCN2CCn3c(ccc(-n4cnc(C)c4)c3=O)C2=O)cc1` [Example 93, 2-{2-[(4′-methylbiphenyl-2-yl)oxy]ethyl}-7-(4-methyl-1H-imidazol-1-yl)-3,4-dihydro-2H-pyrido[1,2-a]pyrazine-1,6-dione, formate salt] the IC50 was 0.0758 µM.
In the case of `Cc1cn(-c2ccc3n(c2=O)CCN(CCOc2ccccc2-c2ccc(Cl)cc2)C3=O)cn1` [Example 94, 2-{2-[(4′-chlorobiphenyl-2-yl)oxy]ethyl}-7-(4-methyl-1H-imidazol-1-yl)-3,4-dihydro-2H-pyrido[1,2-a]pyrazine-1,6-dione, formate salt], the IC50 is reported as 0.108 µM.
`Cc1cccc(-c2ccccc2OCCN2CCn3c(ccc(-n4cnc(C)c4)c3=O)C2=O)c1` [Example 95, 2-{2-[(3′-methylbiphenyl-2-yl)oxy]ethyl}-7-(4-methyl-1H-imidazol-1-yl)-3,4-dihydro-2H-pyrido[1,2-a]pyrazine-1,6-dione, formate salt] gave an IC50 of 0.143 µM.
In the case of `Cc1cn(-c2ccc3n(c2=O)CCN(CCOc2cccc4cc(F)c(F)cc24)C3=O)cn1` [Example 96, 2-{2-[(6,7-difluoronaphthalen-1-yl)oxy]ethyl}-7-(4-methyl-1H-imidazol-1-yl)-3,4-dihydro-2H-pyrido[1,2-a]pyrazine-1,6-dione, trifluoroacetate salt], the IC50 is reported as 0.0482 µM.
